The values below come from PubChem BioAssay AID743141 (Broad Institute, 2013).

What all share (assay): growth inhibition in A549, HCT116, IMR90 – cell-based, TP53 wild-type panel, dry powder, selectivity assay for cell-selective anticancer agent project, dose response (AID 743141)
The subject of test [1] is HCT116 viability, CellTiter-Glo luminescence, 48 h.
For test [2], the system named is IMR90 viability, CellTiter-Glo luminescence, 48 h.
Test [3] deals with A549 viability, CellTiter-Glo luminescence, 48 h.

Activity calls are given as the source filed them.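 Rule for the calls: active = compounds that cut viability of the normal-p53 cell line panel with an IC50 under 10 µM; inactive = IC50 above 10 µM.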

A word on the IC50: it is the concentration that inhibits the measured activity by half. On to `CC(=O)Nc1ccc(C2=NNC(=O)C[C@H]2C)cc1`, for which the IC50 in test [1] was above 10 µM; in test [2] it was above 10 µM; in test [3], > 10 µM (inactive).

On to `C[C@@H]1CC(=O)NN=C1c1ccc(N2CCOCC2)c(F)c1`, for which the IC50 in test [1] is above 10 µM; in test [2], above 10 µM; in test [3], > 10 µM (inactive).

Consider `C[C@H]1CC(=O)NN=C1c1ccc(N2CCOCC2)c(F)c1`, for which the IC50 in test [1] was above 10 µM; in test [2], above 10 µM; in test [3], > 10 µM (inactive).

`C[C@@H]1CC(=O)NN=C1c1ccc(-c2cncnc2)cc1`: the 50% inhibitory concentration (IC50) is above 10 µM in test [1], above 10 µM in test [2] and > 10 µM (inactive) in test [3].

For `CCN1N=C(c2ccc(N(CC)CC)cc2)[C@H](C)CC1=O`, the IC50 in test [1] is above 10 µM; in test [2] it was above 10 µM; in test [3], > 10 µM (inactive).

As for `C[C@@H]1CC(=O)NN=C1c1ccc(Cl)cc1`, the IC50 is above 10 µM in test [1], above 10 µM in test [2] and > 10 µM (inactive) in test [3].

Regarding `O=C1CN2Cc3c(ccc(Cl)c3Cl)N=C2N1`, the figures for the 50% inhibitory concentration (IC50) in test [1], in test [2] and in test [3] were above 10 µM, above 10 µM and > 10 µM (inactive), respectively.

In the case of `CCN(CC)c1ccc(C2=NNC(=O)CC2C)cc1[N+](=O)[O-]` (stereo unspecified), the 50% inhibitory concentration (IC50) was above 10 µM in test [1], above 10 µM in test [2] and > 10 µM (inactive) in test [3].

Take `C[C@@H]1CC(=O)NN=C1c1ccc(N2CCOCC2)cc1`: the IC50 in test [1] was above 10 µM; in test [2], above 10 µM; in test [3], > 10 µM (inactive).

For `COc1cc2c(cc1OC)-c1cc(=Nc3c(C)cc(C)cc3C)n(C)c(=O)n1CC2`, the IC50 in test [1] was above 10 µM; in test [2] it was above 10 µM; in test [3], > 10 µM (inactive).

Consider `C[C@@H]1CC(=O)NN=C1c1ccc(F)c(F)c1`, for which the half-inhibitory concentration (IC50) is above 10 µM in test [1], above 10 µM in test [2] and > 10 µM (inactive) in test [3].

`C[C@@H]1CC(=O)NN=C1c1ccc(C2CCCCC2)cc1`: the IC50 was above 10 µM in test [1], above 10 µM in test [2] and > 10 µM (inactive) in test [3].
